Assay results from EP0830813B1, “Fungicidal compositions” (Aventis CropScience UK Limited, priority 1996, dated 1998).

Key:
Assay type in all cases: in vivo
Leptosphaeria nodorum = test: Control of Leptosphaeria nodorum on sprayed winter wheat, assessed 33 days after application; details: spray, vs untreated, average of 4 replicates
Protocol: (§1) Winter wheat was sprayed with cyprodinil, PBO and mixtures of the two. Thirty three days after application the winter wheat was assessed for levels of Leptosphaeria nodorum compared with untreated cereal, whereby the level of control could be calculated. Results (average of 4 replicates) are shown below.

Erysiphe graminis = test: Control of Erysiphe graminis infection on sprayed winter wheat, assessed after 30 days; details: spray, average of 4 replicates
Protocol: as §1, with “below. In a similar experiment levels of Erysiphe graminis infection were determined after 30 days. Results (average of 4 replicates) are shown below.” for “below.”

[1] = tested on: Leptosphaeria nodorum and Septoria tritici mixed infection; test: Control of Leptosphaeria nodorum and Septoria tritici mixed infection on sprayed winter wheat, assessed 23 days after application; details: spray, average of 4 replicates
Protocol: as §1, with “below. In a similar experiment, levels of Leptosphaeria nodorum and Septoria tritici mixed infection were assessed 23 days after application. Results (average of 4 replicates) are shown below.” for “below.”

Elysiphe graminis = test: Control of Elysiphe graminis infection on sprayed winter wheat, assessed after 14 days; details: spray, average of 3 replicates
Protocol: as §1, with “below. In a similar experiment levels of […] graminis infection were determined after 14 days. Results (average of 3 replicates) are shown below.” for “below.”

| Structure (SMILES) | % control (Leptosphaeria nodorum; 600 g ai / ha) | % control (Erysiphe graminis; 600 g ai / ha) | % control ([1]; 600 g ai / ha) | % control (Elysiphe graminis; 150 g ai/ha) | % control (Elysiphe graminis; 300 g ai/ha) | % control (Elysiphe graminis; 600 g ai/ha) | % control (Leptosphaeria nodorum; 300 g ai / ha) | % control (Erysiphe graminis; 300 g ai / ha) | % control ([1]; 300 g ai / ha) |
| --- | --- | --- | --- | --- | --- | --- | --- | --- | --- |
| Cc1cc(C2CC2)nc(Nc2ccccc2)n1 [cyprodinil] | 23.1% | 34.4% | 0.0% | 35% | 67% | 98% |  |  |  |
| CCCCOCCOCCOCc1cc2c(cc1CCC)OCO2 [PBO, piperonyl butoxide] |  |  |  |  | 0.0% |  | 0.0% | 0.0% | 0.0% |
